In US11180474B2 (BRISTOL-MYERS SQUIBB COMPANY, priority 2016, dated 2021):
Counter-ions that a name gives are not always drawn.

Columns and labels:
human TLR9 = biological target: T1, human TLR9 (Homo sapiens, UniProt Q9NR96); test: TLR9 inhibition reporter assay (HEK-Blue cells, SEAP reporter, ODN2006 stimulation); type: cell-based; settings: HEK-Blue cells overexpressing human TLR9, ODN2006 5 nM
T1 construct: host or cells: HEK-Blue cells
T1 sequence (Q9NR96 26-1032): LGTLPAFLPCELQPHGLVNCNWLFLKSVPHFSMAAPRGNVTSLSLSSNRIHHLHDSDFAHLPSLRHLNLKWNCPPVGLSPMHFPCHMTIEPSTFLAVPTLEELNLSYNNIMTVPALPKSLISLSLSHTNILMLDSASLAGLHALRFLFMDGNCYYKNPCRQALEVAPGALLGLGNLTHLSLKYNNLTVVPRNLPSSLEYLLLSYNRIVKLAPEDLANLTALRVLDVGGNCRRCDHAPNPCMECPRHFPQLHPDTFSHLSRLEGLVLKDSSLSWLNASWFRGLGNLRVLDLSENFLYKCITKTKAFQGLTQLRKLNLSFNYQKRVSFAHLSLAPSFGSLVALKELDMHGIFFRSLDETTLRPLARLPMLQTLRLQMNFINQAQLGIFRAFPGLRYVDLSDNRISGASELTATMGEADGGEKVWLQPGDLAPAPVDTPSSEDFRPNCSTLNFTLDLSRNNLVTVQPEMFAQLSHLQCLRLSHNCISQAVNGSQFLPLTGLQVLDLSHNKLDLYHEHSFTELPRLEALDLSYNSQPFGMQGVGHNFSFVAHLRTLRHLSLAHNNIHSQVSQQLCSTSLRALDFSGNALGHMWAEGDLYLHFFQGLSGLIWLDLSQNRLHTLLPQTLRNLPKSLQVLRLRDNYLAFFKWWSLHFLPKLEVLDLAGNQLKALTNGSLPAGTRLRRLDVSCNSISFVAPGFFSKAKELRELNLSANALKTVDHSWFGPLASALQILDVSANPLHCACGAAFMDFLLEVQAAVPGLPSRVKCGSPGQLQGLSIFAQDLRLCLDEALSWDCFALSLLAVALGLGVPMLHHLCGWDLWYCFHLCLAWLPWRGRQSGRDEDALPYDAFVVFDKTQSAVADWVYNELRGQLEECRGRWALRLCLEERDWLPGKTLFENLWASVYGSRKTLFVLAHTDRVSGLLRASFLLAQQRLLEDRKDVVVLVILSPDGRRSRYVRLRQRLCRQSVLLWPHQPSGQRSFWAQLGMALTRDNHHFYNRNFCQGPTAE
In short: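 Agonists used: gardiquimod 7.5 μM (TLR7), R848 15.9 μM (TLR8), ODN2006 5 nM (TLR9), added after 30 min room-temperature compound pre-treatment (0.05 nM–50 μM) of receptor-overexpressing HEK-Blue cells. SEAP reporter (NF-κB/AP-1 driven) read after 22 h at 37 °C; inhibition scaled between agonist+DMSO and reference-inhibitor wells.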

human TLR7 = biological target: T2, human TLR7 (Homo sapiens, UniProt Q9NYK1); test: TLR7 inhibition reporter assay (HEK-Blue cells, SEAP reporter, gardiquimod stimulation); type: cell-based; settings: HEK-Blue cells overexpressing human TLR7, gardiquimod 7.5 μM
T2 construct: host or cells: HEK-Blue cells
T2 sequence (Q9NYK1 27-1049): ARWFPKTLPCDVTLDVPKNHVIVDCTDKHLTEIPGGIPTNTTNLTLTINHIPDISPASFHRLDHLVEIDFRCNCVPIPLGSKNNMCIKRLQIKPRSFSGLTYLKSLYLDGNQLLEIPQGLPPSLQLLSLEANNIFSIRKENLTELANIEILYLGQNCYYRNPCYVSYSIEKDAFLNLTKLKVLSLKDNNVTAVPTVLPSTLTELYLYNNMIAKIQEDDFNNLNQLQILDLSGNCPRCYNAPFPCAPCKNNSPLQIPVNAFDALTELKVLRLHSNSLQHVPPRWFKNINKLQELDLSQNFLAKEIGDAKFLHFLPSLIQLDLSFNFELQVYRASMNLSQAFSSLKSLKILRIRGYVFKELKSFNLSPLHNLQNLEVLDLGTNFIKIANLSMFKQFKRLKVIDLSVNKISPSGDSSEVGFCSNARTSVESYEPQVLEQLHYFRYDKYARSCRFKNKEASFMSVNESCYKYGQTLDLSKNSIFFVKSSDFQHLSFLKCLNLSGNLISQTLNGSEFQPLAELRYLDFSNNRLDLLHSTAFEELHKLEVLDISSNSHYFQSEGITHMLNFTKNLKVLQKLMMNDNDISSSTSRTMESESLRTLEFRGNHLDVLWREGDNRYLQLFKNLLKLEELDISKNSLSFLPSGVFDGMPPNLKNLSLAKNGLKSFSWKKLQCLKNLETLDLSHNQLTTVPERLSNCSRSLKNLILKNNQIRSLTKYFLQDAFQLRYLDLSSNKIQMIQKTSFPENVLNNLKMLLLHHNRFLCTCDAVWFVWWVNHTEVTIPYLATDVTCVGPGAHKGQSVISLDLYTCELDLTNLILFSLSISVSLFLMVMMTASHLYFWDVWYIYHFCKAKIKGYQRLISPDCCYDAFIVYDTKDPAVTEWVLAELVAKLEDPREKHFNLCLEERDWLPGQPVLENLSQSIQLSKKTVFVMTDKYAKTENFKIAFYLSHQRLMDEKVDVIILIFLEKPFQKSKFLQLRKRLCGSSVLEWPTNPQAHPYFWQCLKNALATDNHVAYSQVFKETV
In short: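 HEK-Blue reporter cells (15,000/well TLR7, 20,000 TLR8) exposed to compound over 0.05 nM–50 μM, agonist-stimulated (R848 for TLR8, gardiquimod for TLR7), 22 h at 37 °C, 5% CO2. SEAP read with HEK-Blue Detection; % inhibition relative to agonist-plus-DMSO and known-inhibitor controls.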

| Structure (SMILES) | IC50 (human TLR9) [µM] | IC50 (human TLR7) [µM] |
| --- | --- | --- |
| COc1ccc(-c2[nH]c3ccc(C4CCN(CC(=O)NCCCN5CCCC5=O)CC4)cc3c2CC(F)(F)F)cc1OC [Example 376, 2-(4-(2-(3,4-dimethoxyphenyl)-3-(2,2,2-trifluoroethyl)-1H-indol-5-yl)piperidin-1-yl)-N-(3-(2-oxopyrrolidin-1-yl)propyl)acetamide] | 2.9 | 0.178 |
| CCC(C)NC(=O)CN1CCC(c2ccc3[nH]c(-c4ccc(OC)c(OC)c4)c(CC(F)(F)F)c3c2)CC1 (stereo not drawn) [Example 377, N-(sec-butyl)-2-(4-(2-(3,4-dimethoxyphenyl)-3-(2,2,2-trifluoroethyl)-1H-indol-5-yl)piperidin-1-yl)acetamide] | 8.65 | 0.233 |
| CCC(CC)NC(=O)CN1CCC(c2ccc3[nH]c(-c4ccc(OC)c(OC)c4)c(CC(F)(F)F)c3c2)CC1 [Example 378, 2-(4-(2-(3,4-dimethoxyphenyl)-3-(2,2,2-trifluoroethyl)-1H-indol-5-yl)piperidin-1-yl)-N-(pentan-3-yl)acetamide] | 14.4 | 0.622 |
| COc1ccc(-c2[nH]c3ccc(C4CCN(CC(=O)NCCNC(C)=O)CC4)cc3c2CC(F)(F)F)cc1OC [Example 379, N-(2-acetamidoethyl)-2-(4-(2-(3,4-dimethoxyphenyl)-3-(2,2,2-trifluoroethyl)-1H-indol-5-yl)piperidin-1-yl)acetamide] | 4.23 | 0.094 |
| COc1ccc(-c2[nH]c3ccc(C4CCN(CC(=O)NCCN(C)C)CC4)cc3c2CC(F)(F)F)cc1OC [Example 380, 2-(4-(2-(3,4-dimethoxyphenyl)-3-(2,2,2-trifluoroethyl)-1H-indol-5-yl)piperidin-1-yl)-N-(2-(dimethylamino)ethyl)acetamide] | 0.745 | 0.033 |
| COc1ccc(-c2[nH]c3ccc(C4CCN(CC(=O)NCC#N)CC4)cc3c2CC(F)(F)F)cc1OC [Example 381, N-(cyanomethyl)-2-(4-(2-(3,4-dimethoxyphenyl)-3-(2,2,2-trifluoroethyl)-1H-indol-5-yl)piperidin-1-yl)acetamide] | 5.91 | 0.063 |
| COc1ccc(-c2[nH]c3ccc(C4CCN(CC(=O)NCCCN(C)C)CC4)cc3c2CC(F)(F)F)cc1OC [Example 382, 2-(4-(2-(3,4-dimethoxyphenyl)-3-(2,2,2-trifluoroethyl)-1H-indol-5-yl)piperidin-1-yl)-N-(3-(dimethylamino)propyl)acetamide] | 0.555 | 0.017 |
| COc1ccc(-c2[nH]c3ccc(C4CCN(CC(=O)NCCCn5ccnc5)CC4)cc3c2CC(F)(F)F)cc1OC [Example 383, N-(3-(1H-imidazol-1-yl)propyl)-2-(4-(2-(3,4-dimethoxyphenyl)-3-(2,2,2-trifluoroethyl)-1H-indol-5-yl)piperidin-1-yl)acetamide] | 0.66 | 0.013 |
| COc1ccc(-c2[nH]c3ccc(C4CCN(CC(=O)NCCc5ccc(S(N)(=O)=O)cc5)CC4)cc3c2CC(F)(F)F)cc1OC [Example 384, 2-(4-(2-(3,4-dimethoxyphenyl)-3-(2,2,2-trifluoroethyl)-1H-indol-5-yl)piperidin-1-yl)-N-(4-sulfamoylphenethyl)acetamide] | 2.31 | 0.15 |
| COc1ccc(-c2[nH]c3ccc(C4CCN(CC(=O)NCC(N)=O)CC4)cc3c2CC(F)(F)F)cc1OC [Example 385, N-(2-amino-2-oxoethyl)-2-(4-(2-(3,4-dimethoxyphenyl)-3-(2,2,2-trifluoroethyl)-1H-indol-5-yl)piperidin-1-yl)acetamide] | 4.25 | 0.061 |
| COc1ccc(-c2[nH]c3ccc(C4CCN(CC(=O)NCCS(=O)(=O)O)CC4)cc3c2CC(F)(F)F)cc1OC [Example 386, 2-(2-(4-(2-(3,4-dimethoxyphenyl)-3-(2,2,2-trifluoroethyl)-1H-indol-5-yl)piperidin-1-yl)acetamido)ethane-1-sulfonic acid] | ≥ 50 | 0.557 |
| COc1ccc(-c2[nH]c3ccc(C4CCN(CC(=O)Nc5cc(C(C)(C)C)[nH]n5)CC4)cc3c2CC(F)(F)F)cc1OC [Example 387, N-(5-(tert-butyl)-1H-pyrazol-3-yl)-2-(4-(2-(3,4-dimethoxyphenyl)-3-(2,2,2-trifluoroethyl)-1H-indol-5-yl)piperidin-1-yl)acetamide] | 8.43 | 0.994 |
| COc1ccc(-c2[nH]c3ccc(C4CCN(CC(=O)NCCCCN5CCCC5)CC4)cc3c2CC(F)(F)F)cc1OC [Example 388, 2-(4-(2-(3,4-dimethoxyphenyl)-3-(2,2,2-trifluoroethyl)-1H-indol-5-yl)piperidin-1-yl)-N-(4-(pyrrolidin-1-yl)butyl)acetamide] | 0.288 | 0.009 |
| CCN(CC)C(=O)C1CCCN(CC(=O)N2CCC(c3ccc4[nH]c(-c5ccc(OC)c(OC)c5)c(C5CCOCC5)c4c3)CC2)C1 (stereo not drawn) [Example 391, 1-(2-(4-(2-(3,4-dimethoxyphenyl)-3-(tetrahydro-2H-pyran-4-yl)-1H-indol-5-yl)piperidin-1-yl)-2-oxoethyl)-N,N-diethylpiperidine-3-carboxamide] | 5.4 | 0.626 |
| CCN(CC)C(=O)C1CCCN(CC(=O)N2CCC(c3ccc4[nH]c(-c5ccc(OC)c(OC)c5)c(C5CCOCC5)c4c3)CC2)C1 (stereo not drawn) [Example 392, 1-(2-(4-(2-(3,4-dimethoxyphenyl)-3-(tetrahydro-2H-pyran-4-yl)-1H-indol-5-yl)piperidin-1-yl)-2-oxoethyl)-N,N-diethylpiperidine-3-carboxamide] | 1.8 | 0.681 |
| COc1ccc(-c2[nH]c3ccc(C4CCN(C(=O)CN[C@H](C)C(C)C)CC4)cc3c2C2CCOCC2)cc1OC [Example 394, (R)-1-(4-(2-(3,4-dimethoxyphenyl)-3-(tetrahydro-2H-pyran-4-yl)-1H-indol-5-yl)piperidin-1-yl)-2-((3-methylbutan-2-yl)amino)ethan-1-one] | 2.76 | 1.39 |
| COc1ccc(-c2[nH]c3ccc(C4CCN(C(=O)CN(C)C)CC4)cc3c2C(O)C(F)(F)F)cc1OC (stereo not drawn) [Example 395, 1-(4-(2-(3,4-dimethoxyphenyl)-3-(2,2,2-trifluoro-1-hydroxyethyl)-1H-indol-5-yl)piperidin-1-yl)-2-(dimethylamino)ethan-1-one] | 13.2 | 0.061 |
| CCc1c(-c2ccc(OC)c(OC)c2)[nH]c2cc(C)c(C3CCNCC3)cc12 [Example 396, 2-(3,4-dimethoxyphenyl)-3-ethyl-6-methyl-5-(piperidin-4-yl)-1H-indole, HCl] | 3.43 | 0.047 |
